The values below come from US20260176320A1, “MODULATORS OF G-PROTEIN COUPLED RECEPTORS” (priority 2018, published 2026).

Molecules are shown by their SMILES. Like-named read-outs stand apart in the source and are kept apart here. A value given as a limit tells only on which side of the number the result lay.

Common to all, as to format: cell-based
In test [1] the target is T1, GLP-1R (Homo sapiens, UniProt P43220). In words: HitHunter cAMP assay (GLP-1R). The settings on record: cAMP; for Emax: read-out: (Emax) GLP-1R. In outline:
(§1)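 cAMP accumulation read by luminescent HitHunter immunocompetition after 30 min room-temperature agonist stimulation. Agonists tested as 22-point twofold dilutions, in duplicate, on 10,000 cells/well in HBSS containing 625 μM IBMX, 10 mM HEPES and 0.2% BSA.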
(Changes in cAMP serve as a functional read-out for many G protein-coupled receptors.)

The target in a further test is T2, GIP-R (Homo sapiens, UniProt P48546).
T2 sequence (P48546 22-466): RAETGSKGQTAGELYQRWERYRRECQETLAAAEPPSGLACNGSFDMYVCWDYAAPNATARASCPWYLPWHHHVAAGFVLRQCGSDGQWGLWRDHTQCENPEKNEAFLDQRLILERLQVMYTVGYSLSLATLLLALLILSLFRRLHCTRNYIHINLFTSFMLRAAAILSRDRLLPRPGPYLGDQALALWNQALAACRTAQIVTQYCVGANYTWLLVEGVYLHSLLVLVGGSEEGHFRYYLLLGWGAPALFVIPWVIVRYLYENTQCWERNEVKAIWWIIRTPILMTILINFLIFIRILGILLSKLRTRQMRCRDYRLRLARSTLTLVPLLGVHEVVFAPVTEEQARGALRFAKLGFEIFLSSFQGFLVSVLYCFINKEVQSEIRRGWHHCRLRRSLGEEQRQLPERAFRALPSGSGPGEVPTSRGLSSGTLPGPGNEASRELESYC
In words: HitHunter cAMP assay (GIP-R). Particulars: cAMP; for Emax: read-out: (Emax) GIP-R. In outline: as §1

The target of test [2] is T1, GLP-1R. In words: PathHunter β-arrestin assay. In outline:
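β-Arrestin recruitment measured by PathHunter enzyme-fragment luminescence, read after 3 h dark incubation at room temperature with detection solution. Beforehand, agonist in a 22-point 2-fold series was applied in duplicate for 90 min at 37 °C to 5,000 cells/well in BSA-containing (0.2%) medium.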

[3] abbreviates: Table 3, read-out: EC50 GLP-1R/nM.
Setting [4] is: Table 3A, read-out: EC50 GLP-1R/nM.
[5] abbreviates: Table 3, read-out: EC50 GIP-R/nM.
Setting [6] is: Table 3A, read-out: EC50 GIP-R/nM.
Where [7] appears, read: PathHunter β-arrestin assay, read-out: β-arrestin activity EC50.

T1 sequence (P43220 24-463): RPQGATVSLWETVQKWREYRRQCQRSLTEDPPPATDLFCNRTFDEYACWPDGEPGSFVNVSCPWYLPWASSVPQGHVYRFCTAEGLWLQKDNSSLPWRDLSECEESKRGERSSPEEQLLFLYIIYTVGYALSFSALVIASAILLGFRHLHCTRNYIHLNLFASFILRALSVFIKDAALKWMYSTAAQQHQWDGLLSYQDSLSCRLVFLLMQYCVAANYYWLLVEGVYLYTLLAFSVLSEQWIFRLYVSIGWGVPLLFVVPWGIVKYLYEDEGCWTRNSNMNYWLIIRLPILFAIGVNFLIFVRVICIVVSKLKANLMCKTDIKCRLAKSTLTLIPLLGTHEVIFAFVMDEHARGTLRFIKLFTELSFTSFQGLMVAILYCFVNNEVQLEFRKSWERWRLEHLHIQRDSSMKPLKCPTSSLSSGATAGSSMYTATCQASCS

By Emax is commonly meant the greatest response seen or fitted, relative to the assay's reference. Take `CCCCCCCCCCCCCCCC(=O)N[C@@H](CCC(=O)NCCCC[C@H](NC(=O)[C@H](CO)NC(=O)[C@@H]1CCCN1C(=O)[C@@H]1CCCN1C(=O)[C@@H]1CCCN1C(=O)[C@H](C)NC(=O)CNC(=O)[C@H](CO)NC(=O)[C@H](CO)NC(=O)[C@@H]1CCCN1C(=O)CNC(=O)CNC(=O)[C@H](C)NC(=O)[C@H](CC(C)C)NC(=O)[C@H](CC(C)C)NC(=O)[C@H](Cc1c[nH]c2ccccc12)NC(=O)[C@H](CC(N)=O)NC(=O)[C@@H](NC(=O)[C@H](Cc1ccccc1)NC(=O)[C@H](CCC(=O)O)NC(=O)C(C)(C)NC(=O)[C@H](C)NC(=O)[C@H](C)NC(=O)[C@H](CCC(N)=O)NC(=O)[C@H](CCCCN)NC(=O)[C@H](CC(=O)O)NC(=O)[C@H](CC(C)C)NC(=O)[C@H](Cc1ccc(O)cc1)NC(=O)[C@@H](NC(=O)[C@H](CO)NC(=O)[C@H](Cc1ccc(O)cc1)NC(=O)[C@H](CC(=O)O)NC(=O)[C@H](CO)NC(=O)[C@@H](NC(=O)[C@H](Cc1ccccc1)NC(=O)[C@@H](NC(=O)CNC(=O)[C@H](CCC(=O)O)NC(=O)CSCC(=O)NCCN1CCCNC1=O)[C@@H](C)O)[C@@H](C)O)[C@@H](C)CC)C(C)C)C(N)=O)C(=O)O` [Compound 31]: the Emax at GLP-1R [1] (Table 3) amounted to 102%; at GLP-1R [1] (Table 3A), 102%; at GIP-R (Table 3) it was 37%; at GIP-R (Table 3A), 37%. In addition, the EC50 at GLP-1R [1] (setting [3]) was 1 to 10 nM; at GLP-1R [1] (setting [4]), 1 to 10 nM; at GIP-R (setting [5]), 10 to 100 nM; on GIP-R (setting [6]) it was 10 to 100 nM; at GLP-1R [2] (setting [7]), more than 1000 nM.
Turning to `CCCCCCCCCCCCCCCC(=O)N[C@@H](CCC(=O)NCCCC[C@H](NC(=O)[C@H](CO)NC(=O)[C@@H]1CCCN1C(=O)[C@@H]1CCCN1C(=O)[C@@H]1CCCN1C(=O)[C@H](C)NC(=O)CNC(=O)[C@H](CO)NC(=O)[C@H](CO)NC(=O)[C@@H]1CCCN1C(=O)CNC(=O)CNC(=O)[C@H](C)NC(=O)[C@H](CC(C)C)NC(=O)[C@H](CC(C)C)NC(=O)[C@H](Cc1c[nH]c2ccccc12)NC(=O)[C@H](CC(N)=O)NC(=O)[C@@H](NC(=O)[C@H](Cc1ccccc1)NC(=O)[C@H](CCC(=O)O)NC(=O)C(C)(C)NC(=O)[C@H](C)NC(=O)[C@H](C)NC(=O)[C@H](CCC(N)=O)NC(=O)[C@H](CCCCN)NC(=O)[C@H](CC(=O)O)NC(=O)[C@H](CC(C)C)NC(=O)[C@H](Cc1ccc(O)cc1)NC(=O)[C@@H](NC(=O)[C@H](CO)NC(=O)[C@H](Cc1ccc(O)cc1)NC(=O)[C@H](CC(=O)O)NC(=O)[C@H](CO)NC(=O)[C@@H](NC(=O)[C@H](Cc1ccccc1)NC(=O)[C@@H](NC(=O)CNC(=O)[C@H](CCC(=O)O)NC(=O)CSCC(=O)NCCN1CCNCC1=O)[C@@H](C)O)[C@@H](C)O)[C@@H](C)CC)C(C)C)C(N)=O)C(=O)O` [Compound 33], the Emax at GLP-1R [1] (Table 3) was determined as 100%; at GLP-1R [1] (Table 3A) it was 100%; on GIP-R (Table 3), 43%; on GIP-R (Table 3A) it was 43%. In addition, the EC50 at GLP-1R [1] (setting [3]) was 0.1 to 1 nM; at GLP-1R [1] (setting [4]) it was 0.1 to 1 nM; on GIP-R (setting [5]), 10 to 100 nM; on GIP-R (setting [6]) it was 10 to 100 nM; at GLP-1R [2] (setting [7]), more than 1000 nM.
As for `CCCCCCCCCCCCCCCC(=O)N[C@@H](CCC(=O)NCCCC[C@H](NC(=O)[C@H](CO)NC(=O)[C@@H]1CCCN1C(=O)[C@@H]1CCCN1C(=O)[C@@H]1CCCN1C(=O)[C@H](C)NC(=O)CNC(=O)[C@H](CO)NC(=O)[C@H](CO)NC(=O)[C@@H]1CCCN1C(=O)CNC(=O)CNC(=O)[C@H](C)NC(=O)[C@H](CC(C)C)NC(=O)[C@H](CC(C)C)NC(=O)[C@H](Cc1c[nH]c2ccccc12)NC(=O)[C@H](CC(N)=O)NC(=O)[C@@H](NC(=O)[C@H](Cc1ccccc1)NC(=O)[C@H](CCC(=O)O)NC(=O)C(C)(C)NC(=O)[C@H](C)NC(=O)[C@H](C)NC(=O)[C@H](CCC(N)=O)NC(=O)[C@H](CCCCN)NC(=O)[C@H](CC(=O)O)NC(=O)[C@H](CC(C)C)NC(=O)[C@H](Cc1ccc(O)cc1)NC(=O)[C@@H](NC(=O)[C@H](CO)NC(=O)[C@H](Cc1ccc(O)cc1)NC(=O)[C@H](CC(=O)O)NC(=O)[C@H](CO)NC(=O)[C@@H](NC(=O)[C@H](Cc1ccccc1)NC(=O)[C@@H](NC(=O)CNC(=O)[C@H](CCC(=O)O)NC(=O)CSCC(=O)NCCN1CC(=O)NC1=O)[C@@H](C)O)[C@@H](C)O)[C@@H](C)CC)C(C)C)C(N)=O)C(=O)O` [Compound 34], the Emax at GLP-1R [1] (Table 3) is 107%; on GLP-1R [1] (Table 3A), 107%; on GIP-R (Table 3), 20 to 38%; at GIP-R (Table 3A) it was 20 to 38%. In addition, the EC50 at GLP-1R [1] (setting [3]) is 0.1 to 1 nM; at GLP-1R [1] (setting [4]), 0.1 to 1 nM; at GIP-R (setting [5]), 1 to 10 nM; on GIP-R (setting [6]), 1 to 100 nM; at GLP-1R [2] (setting [7]), more than 1000 nM.
Turning to `CCCCCCCCCCCCCCCC(=O)N[C@@H](CCC(=O)NCCCC[C@H](NC(=O)[C@H](CO)NC(=O)[C@@H]1CCCN1C(=O)[C@@H]1CCCN1C(=O)[C@@H]1CCCN1C(=O)[C@H](C)NC(=O)CNC(=O)[C@H](CO)NC(=O)[C@H](CO)NC(=O)[C@@H]1CCCN1C(=O)CNC(=O)CNC(=O)[C@H](C)NC(=O)[C@H](CC(C)C)NC(=O)[C@H](CC(C)C)NC(=O)[C@H](Cc1c[nH]c2ccccc12)NC(=O)[C@H](CC(N)=O)NC(=O)[C@@H](NC(=O)[C@H](Cc1ccccc1)NC(=O)[C@H](CCC(=O)O)NC(=O)C(C)(C)NC(=O)[C@H](C)NC(=O)[C@H](C)NC(=O)[C@H](CCC(N)=O)NC(=O)[C@H](CCCCN)NC(=O)[C@H](CC(=O)O)NC(=O)[C@H](CC(C)C)NC(=O)[C@H](Cc1ccc(O)cc1)NC(=O)[C@@H](NC(=O)[C@H](CO)NC(=O)[C@H](Cc1ccc(O)cc1)NC(=O)[C@H](CC(=O)O)NC(=O)[C@H](CO)NC(=O)[C@@H](NC(=O)[C@H](Cc1ccccc1)NC(=O)[C@@H](NC(=O)CNC(=O)[C@H](CCC(=O)O)NC(=O)CSCC(=O)NCCN1CCC(C)(C)C1=O)[C@@H](C)O)[C@@H](C)O)[C@@H](C)CC)C(C)C)C(N)=O)C(=O)O` [Compound 35], the EC50 at GLP-1R [1] (EC50 GLP-1R/nM, Table 3) is 0.1 to 1 nM; on GLP-1R [1] (EC50 GLP-1R/nM, Table 3A), 0.1 to 1 nM; on GIP-R (EC50 GIP-R/nM, Table 3), 1 to 10 nM; on GIP-R (read-out: EC50 GIP-R/nM, Table 3A), 1 to 100 nM; at GLP-1R [2], more than 1000 nM. The maximal response (Emax) at GLP-1R [1] (Table 3) is 110%; on GLP-1R [1] (Table 3A), 110%; at GIP-R (Table 3), 20 to 37%; at GIP-R (Table 3A), 20 to 37%.
As to `CCCCCCCCCCCCCCCC(=O)N[C@@H](CCC(=O)NCCCC[C@H](NC(=O)[C@H](CO)NC(=O)[C@@H]1CCCN1C(=O)[C@@H]1CCCN1C(=O)[C@@H]1CCCN1C(=O)[C@H](C)NC(=O)CNC(=O)[C@H](CO)NC(=O)[C@H](CO)NC(=O)[C@@H]1CCCN1C(=O)CNC(=O)CNC(=O)[C@H](C)NC(=O)[C@H](CC(C)C)NC(=O)[C@H](CC(C)C)NC(=O)[C@H](Cc1c[nH]c2ccccc12)NC(=O)[C@H](CC(N)=O)NC(=O)[C@@H](NC(=O)[C@H](Cc1ccccc1)NC(=O)[C@H](CCC(=O)O)NC(=O)C(C)(C)NC(=O)[C@H](C)NC(=O)[C@H](C)NC(=O)[C@H](CCC(N)=O)NC(=O)[C@H](CCCCN)NC(=O)[C@H](CC(=O)O)NC(=O)[C@H](CC(C)C)NC(=O)[C@H](Cc1ccc(O)cc1)NC(=O)[C@@H](NC(=O)[C@H](CO)NC(=O)[C@H](Cc1ccc(O)cc1)NC(=O)[C@H](CC(=O)O)NC(=O)[C@H](CO)NC(=O)[C@@H](NC(=O)[C@H](Cc1ccccc1)NC(=O)[C@@H](NC(=O)CNC(=O)[C@H](CCC(=O)O)NC(=O)CSCC(=O)NCCN1CCSCC1=O)[C@@H](C)O)[C@@H](C)O)[C@@H](C)CC)C(C)C)C(N)=O)C(=O)O` [Compound 36], the Emax on GLP-1R [1] (Table 3) is 108%; at GLP-1R [1] (Table 3A), 108%; on GIP-R (Table 3), 51 to 75%; at GIP-R (Table 3A) it was 51 to 75%. For the same compound, the EC50 at GLP-1R [1] (setting [3]) was less than 1 nM; at GLP-1R [1] (setting [4]), less than 1 nM; at GIP-R (setting [5]), 0.1 to 10 nM; at GIP-R (setting [6]), 0.1 to 10 nM; at GLP-1R [2] (setting [7]), more than 1000 nM.
